The text below walks through data of the CATMoS acute toxicity set (Mansouri et al. 2021).

A short description of the data set: GHS categories as the set defines them, by LD50: 1 up to 5, 2 up to 50, 3 up to 300, 4 up to 2000, 5 above 2000 mg/kg. The note with it: rat; in vivo; po.

Consider `CC(C)(C)OOC(C)(C)c1ccc(C(C)(C)OOC(C)(C)C)cc1`, for which the GHS category is 5.

`CC(C)C1OCCN1CCOC(=O)NCCCCCCNC(=O)OCCN1CCOC1C(C)C` (stereo not given): the GHS category is on record as 5. Then `CC(C)C(=O)OCCOc1ccccc1`, with 5; and `CCOC(=O)C(=O)Nc1cc(OC)nc(C)n1`, with 4. With `CO/C=C(/C(=O)OC)c1ccccc1Oc1cc(Oc2ccccc2C#N)ncn1`, the GHS category stood at 5.

Turning to `CC(=O)C(N=Nc1ccc(C(=O)Nc2ccc(C(N)=O)cc2)cc1)C(=O)Nc1ccc2[nH]c(=O)[nH]c2c1` (stereo not given), the GHS category is reported as 5.

`COc1ccc(-c2nc(C)c(C(N)=O)s2)cc1` came in with a GHS category of 5. Compound `CC1COc2ccccc2N1C(=O)C(Cl)Cl` (stereo not given) registered a GHS category of 5. Then `CCCC(=O)OCCC(C)CCCC(C)C` (stereo not given), with 5.

`O=C=Nc1cc(Cl)cc(Cl)c1` returned a GHS category of 5. The figure for `FC(F)(F)c1cccc(N2CCc3ccccc3C2c2ccccc2)c1` (stereo not given) is 4. The figure for `OCCCOc1nn(-c2cccc(C(F)(F)F)c2)c2ncccc12` is 4; for `COc1cc([N+](=O)[O-])ccc1N=NC(C(C)=O)C(=O)Nc1cc(Cl)ccc1OC` (stereo not given) it is 5. Then `CCCCCCCCCC[C@H]1O[C@H]1CCCCC(C)C`, with 5; and `CCCCCCCCCCCCCCCCOC(=O)OOC(=O)OCCCCCCCCCCCCCCCC`, with 5. `CCOC(=O)c1cnn(-c2ccccc2)c1N` returned a GHS category of 4. Consider `O=C1c2ccccc2C2=Nc3cccc4cccc(c34)N12`, for which the GHS category is reported as 5. The compound `COc1c(Cl)ccc(B(O)O)c1F` returned a GHS category of 5.

Take `C[C@H]1O[C@H](OC[C@H]2O[C@H](O)[C@H](OS(=O)(=O)O)[C@@H](OS(=O)(=O)O)[C@@H]2OS(=O)(=O)O)[C@H](OS(=O)(=O)O)[C@@H](OS(=O)(=O)O)[C@@H]1O`: the GHS category is given as 5.

`CC/C=C\CCOC=O`: the GHS category turned out to be 5. Compound `Cc1cc(OC(=O)c2cc(Cl)ccc2OC(N)=O)ccc1Cl` came in with a GHS category of 5. Then `CC(=O)OC[C@H]1O[C@@](COC(C)=O)(O[C@H]2O[C@H](COC(C)=O)[C@@H](OC(C)=O)[C@H](OC(C)=O)[C@H]2OC(C)=O)[C@@H](OC(C)=O)[C@@H]1OC(C)=O`, with 5; and `C#CCOc1cc(-n2nc3n(c2=O)CCCC3)c(Cl)cc1Cl`, with 5; and `CCOCCC(C)CCC=C(C)C` (stereo not given), with 5. The figure for `CC(C)OC(=O)c1cc(C(=O)OC(C)C)cc([N+](=O)[O-])c1` is 5. Consider `CNC(=O)Nc1ccc(Cl)c(Cl)c1`, for which the GHS category worked out at 4. The figure for `C[Si](C)(C)O[Si](C)(C)O[Si](C)(C)C` is 5; for `CN1C(=O)C(C)(C)Oc2cc(C(=O)c3ccccc3)ccc21` it is 5; for `Nc1ncc(Br)cc1O` it is 5. In the case of `Oc1ccc(C(O)CN2CCN(C(c3ccccc3)c3ccccc3)CC2)cc1` (stereo not given), the GHS category turned out to be 5. `COc1nc(C)nc(=NC(O)=NS(=O)(=O)c2ccccc2C(=O)O)[nH]1`: the GHS category is recorded as 5.

Consider `CCOC(=O)C(C)(C)NC(=O)c1cnc2cccc(C)n2c1=O`, for which the GHS category is 3. `Cc1cccc(OC(=O)c2ccccc2OC(N)=O)c1` had a GHS category of 5. Regarding `C#CCN(C(C)=O)C(=O)Oc1cccc2c1OC(C)(C)O2`, the GHS category came to 4. Regarding `CC(C)(C)c1ccc(OP(=O)(Oc2ccccc2)Oc2ccccc2)cc1`, the GHS category worked out at 5. The figure for `CCOCCN(Cc1ccc(Oc2ccc([N+](=O)[O-])cc2)cc1)C(=O)C(Cl)Cl` is 5; for `Clc1ccc(C(Cn2ccnc2)OCc2ccc(Sc3ccccc3)cc2)c(Cl)c1` (stereo not given) it is 5; for `CC1CCC(C(C)(C)O)CC1` (stereo not given) it is 5. Then `CCCC/C=C/C=C\C=O`, with 5. The figure for `CC(C)=CC/C(C)=C/COC(=O)c1ccccc1` is 5.
